Source: the NIST ThermoML archive (doi:10.1016/j.jct.2004.11.016)
± gives the expanded uncertainty stated by the source.

Tests used:
[1] = Liquid; for mass density: 101.3 kPa; for viscosity: 101 kPa
[2] = xn = mol fraction of the nth substance listed; conditions: Liquid, x2 = 0; for viscosity: 101 kPa; for mass density: 101.3 kPa

CN(C)CCO [2-(N,N-dimethylamino)ethanol]
[1]
Conditions | mass density [kg/m3] | viscosity [mPa·s]
293.15 K | 887.816 ± 1.2 | –
298.15 K | 883.578 ± 1.2 | –
303.15 K | 879.315 ± 1.3 | –
308.15 K | 875.017 ± 1.3 | –
313.15 K | 870.686 ± 1.3 | 2.238 ± 0.033
318.15 K | 866.316 ± 1.3 | –
323.15 K | 861.902 ± 1.4 | 1.756 ± 0.026
328.15 K | 857.46 ± 1.4 | –
333.15 K | 852.965 ± 1.4 | 1.413 ± 0.021
338.15 K | 848.423 ± 1.5 | –
343.15 K | 843.844 ± 1.5 | 1.156 ± 0.017
348.15 K | 839.205 ± 1.5 | –
353.15 K | 834.521 ± 1.5 | 0.963 ± 0.015
358.15 K | 829.779 ± 1.6 | –
363.15 K | 824.969 ± 1.6 | –

O [water]
[1]
Conditions | mass density [kg/m3] | viscosity [mPa·s]
313.15 K | – | 0.651 ± 0.01
323.15 K | 988.03 ± 0.57 | 0.544 ± 0.009
328.15 K | 985.688 ± 0.59 | –
333.15 K | 983.191 ± 0.6 | 0.463 ± 0.008
338.15 K | 980.546 ± 0.62 | –
343.15 K | 977.759 ± 0.64 | 0.396 ± 0.007
348.15 K | 974.838 ± 0.66 | –
353.15 K | 971.785 ± 0.68 | 0.348 ± 0.006
358.15 K | 968.606 ± 0.7 | –
363.15 K | 965.305 ± 0.72 | –

O [water] + CN(C)CCO
[2]
Conditions | mass density [kg/m3] | viscosity [mPa·s]
313.15 K | – | 0.651 ± 0.01
323.15 K | 988.03 ± 0.57 | 0.544 ± 0.009
328.15 K | 985.688 ± 0.59 | –
333.15 K | 983.191 ± 0.6 | 0.463 ± 0.008
338.15 K | 980.546 ± 0.62 | –
343.15 K | 977.759 ± 0.64 | 0.396 ± 0.007
348.15 K | 974.838 ± 0.66 | –
353.15 K | 971.785 ± 0.68 | 0.348 ± 0.006
358.15 K | 968.606 ± 0.7 | –
363.15 K | 965.305 ± 0.72 | –
